Data from paper PMC7613998, “Development of selective inhibitors of phosphatidylinositol 3-kinase C2α” (Nature Chemical Biology, 2022).

What was measured:
Assay in all cases: biochemical
Parameters in all cases: SelectScreen LanthaScreen kinase binding assay, per cent tracer displacement, mean of two points
Settings in all cases: tracer displacement
[1] = target: T1, BMPR2 (Homo sapiens, UniProt Q13873)
T1 sequence (Q13873 1-1038): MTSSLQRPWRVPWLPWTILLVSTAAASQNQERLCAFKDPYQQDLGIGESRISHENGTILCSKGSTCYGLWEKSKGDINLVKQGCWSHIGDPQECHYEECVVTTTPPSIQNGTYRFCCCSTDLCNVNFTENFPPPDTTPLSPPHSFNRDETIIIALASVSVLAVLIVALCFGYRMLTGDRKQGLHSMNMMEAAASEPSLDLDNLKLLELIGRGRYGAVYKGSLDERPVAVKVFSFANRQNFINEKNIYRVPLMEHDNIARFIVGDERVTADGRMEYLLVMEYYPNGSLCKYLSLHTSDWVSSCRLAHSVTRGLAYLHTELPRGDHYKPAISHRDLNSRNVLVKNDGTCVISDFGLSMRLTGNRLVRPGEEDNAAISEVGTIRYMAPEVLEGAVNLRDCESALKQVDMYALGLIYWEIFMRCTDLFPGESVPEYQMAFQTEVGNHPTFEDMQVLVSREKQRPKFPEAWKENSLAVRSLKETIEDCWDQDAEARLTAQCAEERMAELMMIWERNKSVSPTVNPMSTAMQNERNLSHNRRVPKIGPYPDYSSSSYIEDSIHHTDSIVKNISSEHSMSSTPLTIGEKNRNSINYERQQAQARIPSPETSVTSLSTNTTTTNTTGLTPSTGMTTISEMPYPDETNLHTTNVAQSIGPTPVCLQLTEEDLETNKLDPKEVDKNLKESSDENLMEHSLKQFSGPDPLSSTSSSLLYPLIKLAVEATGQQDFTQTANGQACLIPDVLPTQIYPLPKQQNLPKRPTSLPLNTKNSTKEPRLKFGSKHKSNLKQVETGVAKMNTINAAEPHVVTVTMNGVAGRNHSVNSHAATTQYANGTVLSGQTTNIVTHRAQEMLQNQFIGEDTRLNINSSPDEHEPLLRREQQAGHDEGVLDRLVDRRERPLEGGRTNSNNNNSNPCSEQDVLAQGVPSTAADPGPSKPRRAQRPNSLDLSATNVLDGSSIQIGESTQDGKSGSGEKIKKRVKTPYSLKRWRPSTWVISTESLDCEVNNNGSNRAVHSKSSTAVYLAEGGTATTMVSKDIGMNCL

[2] = target: T2, MAP3K7/MAP3K7IP1 (TAK1-TAB1) (Homo sapiens, UniProt O43318)
T2 construct: TAK1-TAB1
T2 sequence (O43318 1-606): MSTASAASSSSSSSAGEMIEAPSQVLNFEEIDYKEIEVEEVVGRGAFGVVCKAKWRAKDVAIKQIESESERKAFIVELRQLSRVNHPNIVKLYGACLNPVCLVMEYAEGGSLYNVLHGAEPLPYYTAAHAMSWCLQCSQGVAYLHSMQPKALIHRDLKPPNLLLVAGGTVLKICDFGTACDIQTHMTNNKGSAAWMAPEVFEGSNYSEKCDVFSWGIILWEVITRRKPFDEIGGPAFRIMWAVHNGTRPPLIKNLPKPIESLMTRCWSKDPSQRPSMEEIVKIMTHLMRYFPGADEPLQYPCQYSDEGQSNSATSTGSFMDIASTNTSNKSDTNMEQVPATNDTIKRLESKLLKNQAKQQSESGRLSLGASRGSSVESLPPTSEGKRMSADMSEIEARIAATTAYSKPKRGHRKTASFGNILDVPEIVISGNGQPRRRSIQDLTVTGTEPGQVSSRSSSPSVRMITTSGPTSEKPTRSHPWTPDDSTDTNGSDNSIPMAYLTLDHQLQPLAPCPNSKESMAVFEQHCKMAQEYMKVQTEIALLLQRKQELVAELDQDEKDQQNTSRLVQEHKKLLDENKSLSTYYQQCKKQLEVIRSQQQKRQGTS
T2 sequence (Q15750 1-504 partner): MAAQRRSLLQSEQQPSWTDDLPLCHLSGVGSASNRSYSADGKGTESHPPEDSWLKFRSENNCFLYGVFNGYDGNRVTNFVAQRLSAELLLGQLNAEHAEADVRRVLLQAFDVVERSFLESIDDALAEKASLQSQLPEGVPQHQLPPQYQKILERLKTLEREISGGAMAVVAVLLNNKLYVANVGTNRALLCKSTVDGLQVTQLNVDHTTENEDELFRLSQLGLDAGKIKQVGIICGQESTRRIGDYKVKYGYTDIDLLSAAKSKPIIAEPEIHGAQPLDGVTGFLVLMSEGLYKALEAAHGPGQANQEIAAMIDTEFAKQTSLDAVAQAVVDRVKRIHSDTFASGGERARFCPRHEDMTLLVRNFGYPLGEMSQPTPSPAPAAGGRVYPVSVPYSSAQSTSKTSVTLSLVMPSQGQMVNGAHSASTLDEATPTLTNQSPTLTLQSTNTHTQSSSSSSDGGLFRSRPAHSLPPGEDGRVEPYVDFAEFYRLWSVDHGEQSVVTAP

[3] = target: BRAF (Homo sapiens, UniProt P15056)
[4] = target: T3, TGFBR1 (ALK5) (Homo sapiens, UniProt P36897)
T3 sequence (P36897 1-503): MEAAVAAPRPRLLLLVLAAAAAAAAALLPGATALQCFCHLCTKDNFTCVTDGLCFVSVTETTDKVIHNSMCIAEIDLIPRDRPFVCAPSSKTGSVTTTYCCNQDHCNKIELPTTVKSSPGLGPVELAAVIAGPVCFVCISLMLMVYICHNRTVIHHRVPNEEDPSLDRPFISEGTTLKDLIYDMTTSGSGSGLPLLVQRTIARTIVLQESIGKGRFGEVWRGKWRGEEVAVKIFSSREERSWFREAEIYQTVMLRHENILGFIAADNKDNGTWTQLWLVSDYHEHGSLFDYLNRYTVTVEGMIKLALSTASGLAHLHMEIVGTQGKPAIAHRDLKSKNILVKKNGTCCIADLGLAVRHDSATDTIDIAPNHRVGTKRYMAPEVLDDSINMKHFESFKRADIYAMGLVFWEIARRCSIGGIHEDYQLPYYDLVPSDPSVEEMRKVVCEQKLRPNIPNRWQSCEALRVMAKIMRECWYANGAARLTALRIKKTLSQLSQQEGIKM

Chain of BRAF (P15056 whole entry): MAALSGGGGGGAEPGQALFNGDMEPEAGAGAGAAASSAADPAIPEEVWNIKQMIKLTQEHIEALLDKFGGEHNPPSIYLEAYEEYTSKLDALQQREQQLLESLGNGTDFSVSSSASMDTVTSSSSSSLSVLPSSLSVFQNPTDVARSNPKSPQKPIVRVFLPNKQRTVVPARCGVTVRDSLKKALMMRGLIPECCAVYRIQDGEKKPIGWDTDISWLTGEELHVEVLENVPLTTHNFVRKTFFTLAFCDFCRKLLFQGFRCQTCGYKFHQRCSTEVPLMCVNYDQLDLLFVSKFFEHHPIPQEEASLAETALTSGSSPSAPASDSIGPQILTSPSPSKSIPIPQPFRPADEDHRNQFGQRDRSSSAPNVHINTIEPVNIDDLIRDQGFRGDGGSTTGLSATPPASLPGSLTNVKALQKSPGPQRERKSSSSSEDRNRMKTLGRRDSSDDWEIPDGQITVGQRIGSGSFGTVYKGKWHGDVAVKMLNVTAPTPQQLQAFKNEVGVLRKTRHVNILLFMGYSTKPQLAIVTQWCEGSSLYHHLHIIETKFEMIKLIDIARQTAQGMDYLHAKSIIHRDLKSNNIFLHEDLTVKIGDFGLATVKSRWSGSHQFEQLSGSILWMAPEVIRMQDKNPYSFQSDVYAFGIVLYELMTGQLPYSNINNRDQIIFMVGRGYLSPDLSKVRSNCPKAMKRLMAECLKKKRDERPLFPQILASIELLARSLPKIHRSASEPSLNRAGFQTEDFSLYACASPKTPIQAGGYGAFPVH

An inhibition at 1 µM [1] of -1.13%, an inhibition at 3 µM [1] of 0.974% and an inhibition at 10 µM [1] of 3.06% were found for `O=C(CSc1nc2nccnc2c(=O)n1CCc1ccccc1)Nc1nccs1` [compound 1, PITCOIN1] in this work. For the same molecule, the inhibition at 1 µM [2] was -3.93%, the inhibition at 3 µM [2] was -9.87% and the inhibition at 10 µM [2] was -11.5%. It also gave an inhibition at 1 µM [3] of -3.95%, an inhibition at 3 µM [3] of 1.69% and an inhibition at 10 µM [3] of 0.837%. The inhibition at 1 µM [4] was -5.43%, the inhibition at 3 µM [4] was 9.69% and the inhibition at 10 µM [4] was 5.12%.

An inhibition at 1 µM [1] of 11.6%, an inhibition at 3 µM [1] of 13.1% and an inhibition at 10 µM [1] of 17.3% were found for `CS(=O)(=O)Nc1cccc(-c2csc(NC(=O)CSc3nc4nccnc4c(=O)n3CCc3ccccc3)n2)c1` [compound 3, PITCOIN3] in this work. It also gave an inhibition at 1 µM [2] of -2.55%, an inhibition at 3 µM [2] of -10.1% and an inhibition at 10 µM [2] of -10.1%. It also gave an inhibition at 1 µM [3] of 6.15%, an inhibition at 3 µM [3] of 7.18% and an inhibition at 10 µM [3] of 9.11%. The inhibition at 1 µM [4] was -4.81%, the inhibition at 3 µM [4] was 14.1% and the inhibition at 10 µM [4] was 1.48%.
